# Experimental data taken from patent publication US20060116354A1, “Antineoplastic ether lipid compounds with modifications at the sn-3 carbon” (priority 2003, published 2006).
# System: platelets
# Experimental: Briefly, whole citrated blood is diluted 1:2 with sterile saline and placed in a warm chamber with a mini stir bar. An electronic probe, measuring electrical resistance, is inserted in the sample. The aggregometer is calibrated and the baseline is observed to detect any spontaneous aggregation. The test sample is added and allowed to run for at least 6 minutes. If the sample is an agonist the platelets will start to aggregate and stick to the electronic probe causing resistance across the electrodes to increase. This resistance, in ohms, is measured 6 minutes post addition of sample. The test samples are run at 25, 100, 200, 400 and 800 uM and compared to 100 uM L-ET-18-OCH3.
# Collection of Blood Sample for in vitro Platelet Aggregation Testing: Venous blood is collected in 4.5 mL. Vacutainer tubes containing 0.129 M sodium citrate using a 21G needle or larger. Blood is immediately mixed by gentle inversion 15-20 times and kept at room temperature. Dilution ratio is 1 to 9 (3.8% citrate solution:blood). One (2.0 mL) Vacutainer tube containing EDTA is also collected for platelet counts. Complete blood counts (CBC) are measured on the CDC Technologies Hemavet 1500 to ensure that the test subject's platelets are within normal range. Any vials of hemolytic blood or blood containing any clots should be discarded. Platelet aggregation testing must be completed within 3 hours of blood collection. After this time the ability of platelets to aggregate decreases.
# Cloudy solutions were warmed to ˜50° C. to dissolve and particles. Dilutions were prepared in PBS or saline at 40× concentration. (25 uL test sample are added to 1000 uL diluted blood (1:40)).
Platelet aggregation response (in words),Relative Platelet Aggregation (Ohms) 25 μM [Ohms],Relative Platelet Aggregation (Ohms) 100 μM [Ohms],Relative Platelet Aggregation (Ohms) 200 μM [Ohms],Structure (SMILES)
elicits a platelet aggregation response,13,14,12,"CCCCCCCCCCCCCCCCCCOCC(COP(=O)([O-])OCC[N+](C)(C)C)OC [L-ET18OCH3, 1-O-octadecyl-2-O-methyl-glycerophosphocholine]"
–,0,0,0,"CCCCCCCCCCCCCCCCCCOCC(COP(=O)([O-])OCC[N+](C)(C)C)OC [D-ET18OCH3, 1-O-octadecyl-2-O-methyl-glycerophosphocholine]"
